Reference: US20190223450A1, “MICROALGAE EXTRACT FOR AGRICULTURAL USE” (priority 2015, published 2019)

Columns and labels:
[1] = test system: pathogenesis-related (PR) proteins; test: Induced resistance in vine: resistance-linked metabolites and pathogenesis-related (PR) proteins; assay type: in vivo, vine plants; details: for production of metabolites linked to resistance phenomena / response: vine plants
Method: (§1) The efficacy of the treatments using the products listed above was assessed on the basis of the induced resistance using foliar discs and potted vine plants. The rate of induced resistance was determined on the basis of the increase in the content of pathogenesis-related (PR) proteins including: peroxidase, polyphenoloxidase, Beta 1,3-glucanase, phenylalanine ammonia-lyase, stilbene synthase, PR-1 protein and caffeoyl coenzyme A-3-O-methyltransferase.

Plasmopara viticola = test: Protection of vine foliar discs and potted vine plants against Plasmopara viticola (peronospora); assay type: in vivo; details: vine plants affected by peronospora
Method: The field tests were performed on vine plants affected by peronospora. The potential of certain biocontrol and plant extract products for protection against Plasmopara viticola (peronospora) was also assessed, since some chemical and natural substances can reduce the plants' susceptibility. In particular, comparisons were performed on the use of commercial products or experimental products: • EXPERIMENTAL PRODUCT 1 (EP1) yeast extract • EXPERIMENTAL PRODUCT 2 (EP2) plant extract • EXPERIMENTAL PRODUCT 3 (EP3) Aureobasidium pullulans • CANG extract of Solidago canadensis • P E N extract of mycelium of Penicillium crysogenum • LIN linoleic acid • BABA—chemical elicitors of 3-dl-β-aminobutyric acid • BTH—chemical elicitors of benzothiadiazole • CP—comparator product: extract of microalgae • MBGPT1—alginate extract of Phaeodactylum tricornutum obtained according to the method described above • chrysolaminarin from microalga
as §1

zoospores = test: Inhibition of zoospores (mobility); design: species or system Plasmopara viticola

SMILES | production of metabolites linked to resistance phenomena / response [1] | protection (Plasmopara viticola) | inhibition of the zoospores (mobility) (zoospores) | formation of necrotic spots and PR proteins ([1]; immediately after inoculation)
c1ccc2snnc2c1 [BTH, benzothiadiazole] | induced the production of a wide range of metabolites linked to resistance phenomena | – | – | –
CCCCC/C=C\C/C=C\CCCCCCCC(=O)O [LIN, linoleic acid] | induced the production of a wide range of metabolites linked to resistance phenomena | insignificant protection | – | –
CC(N)CC(=O)O (racemic) [BABA, 3-dl-β-aminobutyric acid] | – | – | unable to inhibit the zoospores | caused the formation of necrotic spots and PR proteins immediately after inoculation
